Key:
Assay type in all cases: cell-based
P2RX7 receptor [1] = target: T1, P2RX7 receptor (Homo sapiens, UniProt Q99572); experiment: ionChannelΩ conductance assay, HEK-293 expressing P2RX7; details: HEK-293_P2RX7, agonist
T1 construct: host or cells: HEK-293
T1 sequence (Q99572 1-595): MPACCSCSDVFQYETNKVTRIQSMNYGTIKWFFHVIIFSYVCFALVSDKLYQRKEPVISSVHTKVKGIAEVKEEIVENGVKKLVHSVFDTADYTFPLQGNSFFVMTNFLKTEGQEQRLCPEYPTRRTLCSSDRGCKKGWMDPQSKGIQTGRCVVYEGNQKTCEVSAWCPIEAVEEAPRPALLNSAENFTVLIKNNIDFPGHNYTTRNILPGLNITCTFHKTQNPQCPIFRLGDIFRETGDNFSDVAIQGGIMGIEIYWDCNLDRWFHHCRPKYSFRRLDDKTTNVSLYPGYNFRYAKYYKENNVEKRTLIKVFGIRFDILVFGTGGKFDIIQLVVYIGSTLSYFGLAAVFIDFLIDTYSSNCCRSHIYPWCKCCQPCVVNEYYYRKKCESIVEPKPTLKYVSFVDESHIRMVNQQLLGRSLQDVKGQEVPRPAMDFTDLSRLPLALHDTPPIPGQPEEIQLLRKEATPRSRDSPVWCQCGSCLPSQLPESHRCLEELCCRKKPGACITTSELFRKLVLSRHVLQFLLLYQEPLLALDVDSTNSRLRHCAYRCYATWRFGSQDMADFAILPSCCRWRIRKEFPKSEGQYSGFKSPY

P2RX7 receptor [2] = target: T1, P2RX7 receptor; experiment: FLIPR (GCaMP2.1 calcium biosensor), HEK-293 expressing P2RX7; details: HEK-293_P2RX7, agonist
Experimental: (§1) Intracellular calcium concentration was measured by: GCaMP2.1 calcium biosensor for P2RX7; Screen Quest™ Fluo-8 No. Wash Calcium Assay Kit (AAT Bioquest) for TRPV1; and Calcium Assay Kit (Molecular Devices) for TRPM2.
For the P2RX7 assay, cells were preincubated in Low Calcium, Magnesium free Tyrode’s Buffer.
Reference blockers were injected at FLIPRTetra instrument and fluorescence signal was recorded. After 10 minutes a second injection of reference activators was performed and fluorescence was measured.

hTRPV1 = target: T2, hTRPV1 (Homo sapiens, UniProt Q8NER1); experiment: ionChannelΩ electro-optical conductance assay, CHO-K1 expressing hTRPV1; details: scatter plot linear regression, highest capsaicin concentrations
T2 construct: host or cells: CHO-K1
T2 sequence (Q8NER1 whole entry): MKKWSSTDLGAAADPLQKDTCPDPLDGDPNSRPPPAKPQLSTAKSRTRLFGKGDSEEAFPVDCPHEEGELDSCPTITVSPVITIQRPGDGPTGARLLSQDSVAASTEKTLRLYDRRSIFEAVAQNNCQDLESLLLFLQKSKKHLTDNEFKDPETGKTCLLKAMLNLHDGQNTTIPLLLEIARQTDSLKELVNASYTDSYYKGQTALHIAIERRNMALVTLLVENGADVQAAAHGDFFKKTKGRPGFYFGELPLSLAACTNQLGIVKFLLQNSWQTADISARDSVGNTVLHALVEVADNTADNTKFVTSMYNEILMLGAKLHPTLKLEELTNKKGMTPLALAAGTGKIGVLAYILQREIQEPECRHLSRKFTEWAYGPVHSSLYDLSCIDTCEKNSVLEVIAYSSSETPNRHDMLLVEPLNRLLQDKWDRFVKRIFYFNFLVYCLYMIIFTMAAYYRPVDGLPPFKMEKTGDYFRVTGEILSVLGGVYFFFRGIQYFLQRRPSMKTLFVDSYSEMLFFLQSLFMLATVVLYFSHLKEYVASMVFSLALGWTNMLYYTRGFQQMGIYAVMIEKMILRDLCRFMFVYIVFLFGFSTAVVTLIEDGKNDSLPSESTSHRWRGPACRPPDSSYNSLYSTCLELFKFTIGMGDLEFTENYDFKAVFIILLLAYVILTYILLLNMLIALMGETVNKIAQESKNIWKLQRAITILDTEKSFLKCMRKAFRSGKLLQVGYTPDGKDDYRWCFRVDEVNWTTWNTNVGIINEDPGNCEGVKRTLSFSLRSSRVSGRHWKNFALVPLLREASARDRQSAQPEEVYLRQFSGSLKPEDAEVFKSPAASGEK
Experimental: (§2) Test current pulses (mono or biphasic) were administered to cells by parallel electrodes placed on the plane of the cells. Pulse length was several times the membrane time constant of the investigated cells in order to acquire images at a time of the pulse when plateau was fully established. Current intensity was set high enough to generate significant variations in the fluorescence signal, still avoiding membrane electroporation[35]. More specifically, a plot of the ΔFc/FRc values obtained at increasing current values was obtained: only current intensities giving correlative values lying on the linear part of the plot were used. […]
(§3) Images are processed off-line by a MATLAB-based Image Analysis program, developed in the laboratory, which offers the possibility to employ different filters, parameters and types of analysis in order to extract the data necessary to draw CRCs. […] More specifically, pixels were selected as part of the shape mask when the following requirements were met: to be part of the cell (recognition of object boundary from fluorescence signals); to be confined to the plasma membrane region (calculation of a ring of depth boundaries). […] In either case, mean values ± standard error (calculated from values obtained in the different sampling areas of the same well) were obtained at the various concentration of the drug and fitted by a nonlinear regression curve. […]

HeLa cells = experiment: Optical detection of plasma membrane resistance changes in HeLa cells (conventional microscope); details: increasing concentrations
Description: Resistance (R) determines the magnitude of the passive changes observed in membrane potential in response to a constant current: the lower the resistance, the lower the membrane potential variation (Supplementary Figure 1). Accordingly, we investigated the possibility of using local membrane potential variations imposed by a test square current pulse to measure changes in membrane resistance. The variation of VSD fluorescence values during the current pulse, were quantified as ΔF, i.e. the difference between the plateau value reached during the electric stimulus (FS) and the pre-stimulus, resting, value (FR) (Supplementary Figure 1). ΔF values were further normalized to their respective resting values (ΔF/FR) to take into account even minimal variations of VSD fluorescence due to dye bleaching. […]
Images were processed off-line by an image analysis program developed in MATLAB (The MathWorks). […] Fluorescence intensity values were calculated as the mean of the values obtained in the selected ROIs within the 3 stimuli series administered in the different conditions (before and during the plateau phase of the pulse, in the absence and in the presence of a test compound). […]

TRPM2 [3] = target: T3, TRPM2 (Homo sapiens, UniProt O94759); experiment: ionChannelΩ conductance assay, HEK-293 expressing TRPM2; details: HEK-293_TRPM2
T3 construct: host or cells: HEK-293
T3 sequence (O94759 whole entry): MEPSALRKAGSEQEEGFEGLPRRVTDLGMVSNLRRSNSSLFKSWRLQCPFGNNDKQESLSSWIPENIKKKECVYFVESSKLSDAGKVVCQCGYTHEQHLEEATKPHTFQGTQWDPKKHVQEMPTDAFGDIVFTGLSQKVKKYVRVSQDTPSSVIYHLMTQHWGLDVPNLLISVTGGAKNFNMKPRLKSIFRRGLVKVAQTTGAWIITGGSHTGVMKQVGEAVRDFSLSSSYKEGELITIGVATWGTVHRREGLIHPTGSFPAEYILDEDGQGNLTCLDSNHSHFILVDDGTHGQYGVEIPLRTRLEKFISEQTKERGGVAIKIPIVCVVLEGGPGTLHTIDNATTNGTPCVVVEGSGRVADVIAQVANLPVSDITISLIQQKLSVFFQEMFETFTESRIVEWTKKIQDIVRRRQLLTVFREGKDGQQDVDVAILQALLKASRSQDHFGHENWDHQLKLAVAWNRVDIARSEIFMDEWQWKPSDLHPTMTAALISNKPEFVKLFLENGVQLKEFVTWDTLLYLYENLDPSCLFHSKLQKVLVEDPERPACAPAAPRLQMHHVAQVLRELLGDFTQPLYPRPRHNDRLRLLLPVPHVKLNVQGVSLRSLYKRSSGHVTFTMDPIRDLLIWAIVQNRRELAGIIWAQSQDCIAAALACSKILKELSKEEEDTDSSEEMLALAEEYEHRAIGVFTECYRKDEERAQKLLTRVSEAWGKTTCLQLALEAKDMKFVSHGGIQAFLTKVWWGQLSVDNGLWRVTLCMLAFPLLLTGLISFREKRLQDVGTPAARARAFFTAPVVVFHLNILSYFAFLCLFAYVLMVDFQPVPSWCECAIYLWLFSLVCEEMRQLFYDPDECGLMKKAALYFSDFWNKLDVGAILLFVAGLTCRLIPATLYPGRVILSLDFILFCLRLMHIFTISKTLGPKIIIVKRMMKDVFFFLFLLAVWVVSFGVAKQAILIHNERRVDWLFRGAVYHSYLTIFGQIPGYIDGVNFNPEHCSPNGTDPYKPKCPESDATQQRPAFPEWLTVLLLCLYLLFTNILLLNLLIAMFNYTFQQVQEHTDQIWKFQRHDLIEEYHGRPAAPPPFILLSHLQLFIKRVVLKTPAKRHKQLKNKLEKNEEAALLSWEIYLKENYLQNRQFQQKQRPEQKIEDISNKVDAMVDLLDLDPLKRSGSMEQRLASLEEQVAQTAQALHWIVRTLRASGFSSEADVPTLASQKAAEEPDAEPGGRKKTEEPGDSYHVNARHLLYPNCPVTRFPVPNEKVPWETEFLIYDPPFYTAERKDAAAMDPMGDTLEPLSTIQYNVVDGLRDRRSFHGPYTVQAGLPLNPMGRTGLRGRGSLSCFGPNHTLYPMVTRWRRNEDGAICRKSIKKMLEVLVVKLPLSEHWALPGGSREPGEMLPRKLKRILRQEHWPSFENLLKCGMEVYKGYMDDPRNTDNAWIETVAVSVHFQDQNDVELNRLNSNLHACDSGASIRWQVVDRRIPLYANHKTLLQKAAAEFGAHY
Experimental: as §2, §3

TRPM2 [4] = target: T3, TRPM2; experiment: FLIPR (Calcium Assay Kit), HEK-293 expressing TRPM2; details: HEK-293_TRPM2
Experimental: as §1

Question: For “2′(3′)-O-(4-Benzoylbenzoyl)adenosine 5′-triphosphate triethylammonium salt [BzATP]”, which EC50 (P2RX7 receptor [1]) is on record?
Answer: 3.4 µM

Question: And the EC50 (P2RX7 receptor [2])?
Answer: 6.35 µM

Question: `COc1cc(CNC(=O)CCCC/C=C/C(C)C)ccc1O` [capsaicin] was tested. Which “unitary slope resistance, final value at increasing concentrations” value (hTRPV1) did it give?
Answer: ~20 % of control

Question: With “Streptolysin-O: bacterial protein able to insert into the eukaryotic plasma membrane and form non-selective ion pores” as the compound, how does the “VSD responses to electric square pulses (membrane resistance)” value (HeLa cells) read?
Answer: progressively reduced in amplitude

Question: Which EC50 (TRPM2 [3]) does the source give for `COC1=C(N)C(=O)c2nc(-c3nc(C(=O)O)c(C)c(-c4ccc(OC)c(OC)c4O)c3N)ccc2C1=O` [streptonigrin] here?
Answer: 14.1 µM

Question: And the EC50 (TRPM2 [4])?
Answer: 4.3 µM
